# Patent US12590062B2, “PD-1/PD-L1 inhibitors” (Gilead Sciences, Inc., priority 2017, dated 2026)
# pEC50: −log10 of the molar value.
# Molecular target: T1, PD-1/PD-L1 interaction (Homo sapiens, UniProt Q9NZQ7)
# T1 construct: expressed in transfected cells; host or cells: CHO cells (aAPC-PD-L1) co-cultured with Jurkat cells overexpressing PD-1 and an NFAT-luciferase reporter
# Assay: PD-1/PD-L1 NFAT reporter co-culture assay
# Assay type: cell-based
# Conditions: Jurkat PD-1 NFAT-luciferase cells co-cultured with aAPC-PD-L1 CHO cells, 6 hrs at 37° C.; read-out: EC50 NFAT Luciferase
# Experimental: PD-1/PD-L1 NEAT Reporter Assay:
# Compounds were tested in afunctional co-culture reporter assay in which TCR-mediated NFAT activity is inhibited by the engagement of PD-1 with PD-L1. […] CHO cells expressing surface-bound anti-CD3 antibodies and PD-L1 (artificial antigen presenting cells, aAPC-PD-L1) were first seeded overnight. Jurkat cells overexpressing PD-1 and expressing a luciferase construct under NFAT control are diluted in RPMI assay medium (RPMI 1640 with 2% FBS), mixed with compounds, and immediately seeded on the monolayer of aAPC-PD-L1. The co-culture is then incubated for 6 hrs at 37° C. Luciferase activity is assessed by adding the ONE-Glo reagent and measuring luminescence with a plate reader. EC50 values are calculated from the fit of the dose-response curves to a four-parameter equation (Table 3).
# T1 sequence (Q9NZQ7 19-290): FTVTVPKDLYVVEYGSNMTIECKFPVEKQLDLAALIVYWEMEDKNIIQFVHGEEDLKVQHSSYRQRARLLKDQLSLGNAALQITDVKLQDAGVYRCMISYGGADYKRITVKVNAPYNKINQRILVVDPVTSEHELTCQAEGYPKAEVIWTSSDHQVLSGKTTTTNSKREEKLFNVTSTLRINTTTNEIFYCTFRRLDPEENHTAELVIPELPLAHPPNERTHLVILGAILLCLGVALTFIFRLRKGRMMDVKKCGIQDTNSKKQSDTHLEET
row,Compound,pEC50
1,"COc1nc(OCc2cccc(-c3cccc(COc4nc(OC)c(CN[C@@H](C)C(N)=O)cc4Cl)c3C)c2C)c(Cl)cc1CN[C@@H](C)C(N)=O [Example 101, (2S,2′S)-2,2′-((((((2,2′-dimethyl-[1,1′-biphenyl]-3,3′-diyl)bis(methylene))bis(oxy))bis(5-chloro-2-methoxypyridine-6,3-diyl))bis(methylene))bis(azanediyl))dipropanamide]",5.74
2,"COc1nc(O[C@H]2CCc3c(-c4cccc(-c5ccc(OCCNCCO)cc5)c4C)cccc32)ccc1CNCC(=O)O [Example 102, (S)-((6-((4-(4′-(2-((2-hydroxyethyl)amino)ethoxy)-2-methyl-[1,1′-biphenyl]-3-yl)-2,3-dihydro-1H-inden-1-yl)oxy)-2-methoxypyridin-3-yl)methyl)glycine]",4.88
3,"COc1nc(O[C@H]2CCc3c(-c4cccc(-c5ccc(OCCNC[C@@H](O)CC(=O)O)cc5)c4C)cccc32)ccc1CNCC(=O)O [Example 103, (S)-4-((2-((3′-((S)-1-((5-(((carboxymethyl)amino)methyl)-6-methoxypyridin-2-yl)oxy)-2,3-dihydro-1H-inden-4-yl)-2′-methyl-[1,1′-biphenyl]-4-yl)oxy)ethyl)amino)-3-hydroxybutanoic acid]",4.83
4,"COc1nc(OCc2cccc(-c3cccc(COc4nc(OC)c([C@@H]5NCC[C@@H]5C(=O)O)cc4Cl)c3C)c2C)c(Cl)cc1[C@@H]1NCC[C@@H]1C(=O)O [Example 104, (2R,2′R,3S,3′S)-2,2′-((((2,2′-dimethyl-[1,1′-biphenyl]-3,3′-diyl)bis(methylene))bis(oxy))bis(5-chloro-2-methoxypyridine-6,3-diyl))bis(pyrrolidine-3-carboxylic acid)]",≤ 4.30
5,"C=CCOC(=O)[C@H]1CCN[C@H]1c1cc(Cl)c(OCc2cccc(-c3cccc(COc4nc(OC)c([C@@H]5NCC[C@@H]5C(=O)O)cc4Cl)c3C)c2C)nc1OC [Example 105, (2R,3S)-2-(6-((3′-(((5-((2R,3S)-3-((allyloxy)carbonyl)pyrrolidin-2-yl)-3-chloro-6-methoxypyridin-2-yl)oxy)methyl)-2,2′-dimethyl-[1,1′-biphenyl]-3-yl)methoxy)-5-chloro-2-methoxypyridin-3-yl)pyrrolidine-3-carboxylic acid]",≤ 4.30
6,"COc1nc(OCc2cccc(-c3cccc(COc4nc(OC)c(CN[C@@H](CCC(N)=O)C(=O)O)cc4Br)c3C)c2C)c(Br)cc1CN[C@@H](CCC(N)=O)C(=O)O [Example 115, (2S,2′S)-2,2′-((((((2,2′-dimethyl-[1,1′-biphenyl]-3,3′-diyl)bis(methylene))bis(oxy))bis(5-bromo-2-methoxypyridine-6,3-diyl))bis(methylene))bis(azanediyl))bis(5-amino-5-oxopentanoic acid)]",≤ 4.30
7,"Cc1c(COc2nc(OCc3cc(C#N)cc(C#N)c3)c(CNCC(=O)O)cc2Cl)cccc1-c1cccc(COc2nc(OCc3cc(C#N)cc(C#N)c3)c(CNCC(=O)O)cc2Cl)c1C [Example 125, 2,2′-((((((2,2′-dimethyl-[1,1′-biphenyl]-3,3′-diyl)bis(methylene))bis(oxy))bis(5-chloro-2-((3,5-dicyanobenzyl)oxy)pyridine-6,3-diyl))bis(methylene))bis(azanediyl))diacetic acid]",6.80
8,"Cc1c(COc2nc(OCCc3cc[nH]n3)c(CNC[C@@H](O)CC(=O)O)cc2Br)cccc1-c1cccc(COc2nc(OCCc3cc[nH]n3)c(CNC[C@@H](O)CC(=O)O)cc2Br)c1C [Example 142, (3S,3′S)-4,4′-((((((2,2′-dimethyl-[1,1′-biphenyl]-3,3′-diyl)bis(methylene))bis(oxy))bis(2-(2-(1H-pyrazol-3-yl)ethoxy)-5-bromopyridine-6,3-diyl))bis(methylene))bis(azanediyl))bis(3-hydroxybutanoic acid)]",6.63
9,"COc1nc(OCc2cccc(-c3cccc(COc4nc(OC)c(CNCC(=O)NS(C)(=O)=O)cc4Cl)c3C)c2C)c(Cl)cc1CNCC(=O)NS(C)(=O)=O [Example 168, 2,2′-((((((2,2′-Dimethyl-[1,1′-biphenyl]-3,3′-diyl)bis(methylene))bis(oxy))bis(5-chloro-2-methoxypyridine-6,3-diyl))bis(methylene))bis(azanediyl))bis(N-(methylsulfonyl)acetamide)]",6.51
10,"COc1nc(OCc2cccc(-c3cccc(COc4nc(OC)c(CNCc5nnn[nH]5)cc4Cl)c3C)c2C)c(Cl)cc1CNCc1nnn[nH]1 [Example 169, 1,1′-((((2,2′-dimethyl-[1,1′-biphenyl]-3,3′-diyl)bis(methylene))bis(oxy))bis(5-chloro-2-methoxypyridine-6,3-diyl))bis(N-((1H-tetrazol-5-yl)methyl)methanamine)]",6.65
11,"COc1nc(OCc2cccc(-c3cccc(COc4nc(OC)c(CNCc5nnc(C)o5)cc4Cl)c3C)c2C)c(Cl)cc1CNCc1nnc(C)o1 [Example 170, 1,1′-((((2,2′-dimethyl-[1,1′-biphenyl]-3,3′-diyl)bis(methylene))bis(oxy))bis(5-chloro-2-methoxypyridine-6,3-diyl))bis(N-((5-methyl-1,3,4-oxadiazol-2-yl)methyl)methanamine)]",≤ 4.30
12,"COc1nc(OCc2cccc(-c3cccc(COc4nc(OC)c(CNCc5c[nH]nn5)cc4Cl)c3C)c2C)c(Cl)cc1CNCc1c[nH]nn1 [Example 171, 1,1′-((((2,2′-dimethyl-[1,1′-biphenyl]-3,3′-diyl)bis(methylene))bis(oxy))bis(5-chloro-2-methoxypyridine-6,3-diyl))bis(N-((1H-1,2,3-triazol-4-yl)methyl)methanamine)]",5.11
13,"COc1nc(OCc2cccc(-c3cccc(COc4nc(OC)c(CN[C@@H]5CONC5=O)cc4Cl)c3C)c2C)c(Cl)cc1CN[C@@H]1CONC1=O [Example 173, (4R,4′R)-4,4′-((((((2,2′-dimethyl-[1,1′-biphenyl]-3,3′-diyl)bis(methylene))bis(oxy))bis(5-chloro-2-methoxypyridine-6,3-diyl))bis(methylene))bis(azanediyl))bis(isoxazolidin-3-one)]",≤ 4.30

# Continued, values first:
row,pEC50,Compound
1,4.46,"Cc1c(-c2ccc(OCCNC[C@H](O)CC(=O)O)cc2)cccc1-c1cccc(-c2ccc(OCCNC[C@H](O)CC(=O)O)cc2)c1C [Example 107, (3R,3′R)-4,4′-((((2′,2″-dimethyl-[1,1′:3′,1″:3″,1′″-quaterphenyl]-4,4′″-diyl)bis(oxy))bis(ethane-2,1-diyl))bis(azanediyl))bis(3-hydroxybutanoic acid)]"
2,4.86,"Cc1c(COc2cc(OCc3cncc(C#N)c3)c(CNC[C@@H](O)CC(=O)O)cc2Cl)cccc1-c1ccc2c(c1)OC(CNC[C@@H](O)CC(=O)O)CO2 (stereo partly drawn) [Example 108, (3S)-4-((4-((3-(3-((((S)-3-carboxy-2-hydroxypropyl)amino)methyl)-2,3-dihydrobenzo[b] [1,4]dioxin-6-yl)-2-methylbenzyl)oxy)-5-chloro-2-((5-cyanopyridin-3-yl)methoxy)benzyl)amino)-3-hydroxybutanoic acid]"
3,6.63,"Cc1c(COc2nc(OCCc3cc(C#N)ccn3)c(CNC[C@@H](O)CC(=O)O)cc2Br)cccc1-c1cccc(COc2nc(OCCc3cc(C#N)ccn3)c(CNC[C@@H](O)CC(=O)O)cc2Br)c1C [Example 128, (3S,3′S)-4,4′-((((((2,2′-dimethyl-[1,1′-biphenyl]-3,3′-diyl)bis(methylene))bis(oxy))bis(5-bromo-2-(2-(4-cyanopyridin-2-yl)ethoxy)pyridine-6,3-diyl))bis(methylene))bis(azanediyl))bis(3-hydroxybutanoic acid)]"
4,6.28,"Cc1c(COc2nc(OCc3cnn(C)c3)c(CNC[C@@H](O)CC(=O)O)cc2Cl)cccc1-c1cccc(COc2nc(OCc3cnn(C)c3)c(CNC[C@@H](O)CC(=O)O)cc2Cl)c1C [Example 136, (3S,3′S)-4,4′-((((((2,2′-dimethyl-[1,1′-biphenyl]-3,3′-diyl)bis(methylene))bis(oxy))bis(5-chloro-2-((1-methyl-1H-pyrazol-4-yl)methoxy)pyridine-6,3-diyl))bis(methylene))bis(azanediyl))bis(3-hydroxybutanoic acid)]"
5,6.62,"Cc1c(COc2nc(OCc3ccc(F)c(C#N)c3)c(CNC[C@@H](O)CC(=O)O)cc2Br)cccc1-c1cccc(COc2nc(OCc3ccc(F)c(C#N)c3)c(CNC[C@@H](O)CC(=O)O)cc2Br)c1C [Example 140, (3S,3′S)-4,4′-((((((2,2′-dimethyl-[1,1′-biphenyl]-3,3′-diyl)bis(methylene))bis(oxy))bis(5-bromo-2-((3-cyano-4-fluorobenzyl)oxy)pyridine-6,3-diyl))bis(methylene))bis(azanediyl))bis(3-hydroxybutanoic acid)]"
6,6.23,"Cc1c(COc2nc(OCc3cccc(C#N)n3)c(CNC[C@@H](O)CC(=O)O)cc2Br)cccc1-c1cccc(COc2nc(OCc3cccc(C#N)n3)c(CNC[C@@H](O)CC(=O)O)cc2Br)c1C [Example 152, (3S,3′S)-4,4′-((((((2,2′-dimethyl-[1,1′-biphenyl]-3,3′-diyl)bis(methylene))bis(oxy))bis(5-bromo-2-((6-cyanopyridin-2-yl)methoxy)pyridine-6,3-diyl))bis(methylene))bis(azanediyl))bis(3-hydroxybutanoic acid)]"
7,6.48,"Cc1c(COc2nc(OCc3cccc(C#N)c3)c(CNC[C@@H](O)CC(=O)O)cc2Cl)cccc1-c1cccc(COc2nc(OCc3cccc(C#N)c3)c(CNC[C@@H](O)CC(=O)O)cc2Cl)c1C [Example 153, (3S,3′S)-4,4′-((((((2,2′-dimethyl-[1,1′-biphenyl]-3,3′-diyl)bis(methylene))bis(oxy))bis(5-chloro-2-((3-cyanobenzyl)oxy)pyridine-6,3-diyl))bis(methylene))bis(azanediyl))bis(3-hydroxybutanoic acid)]"
